# From US20240360194A1, “New Peptides as Potent and Selective GIP Receptor Agonists” (Sanofi, priority 2021, published 2024)
# Numbered stars: 1 amine (or outer) side, 2 acyl side, 3 side chain; on linkers, the order of the positions; unused ones are H or OH. Square brackets hold non-standard residues; d marks the D form. Side chains are listed from the residue outwards. Peptide text beside a SMILES is read from it. * marks the point of attachment. C18 diacid = O=C(O)CCCCCCCCCCCCCCCCC(=O)*; γGlu = O=C(O)[C@H](CCC(=O)[*:2])N[*:1]; AEEA = NCCOCCOCC(=O)O; Aib = CC(C)(N)C(=O)O
# Experiments:
# [1] = ThT assay for the assessment of physical stability (fibrillation); format: physicochemical; settings: ThT buffer system A: 100 mM phosphate buffer pH 7.4; 3 mg/ml, 37° C., shaking
# Description: Low physical stability of a peptide solution may lead to amyloid fibril formation, which is observed as well-ordered, thread-like macromolecular structures in the sample, which eventually may lead to gel formation. Thioflavin T (ThT) is widely used to visualize and quantify the presence of misfolded protein aggregates [Biancalana et al., Biochim. Biophys. Acta 2010, 1804(7), 1405]. […] Enzymol. 1999, 309, 274]. The time course for fibril formation often follows the characteristic shape of a sigmoidal curve and can be separated into three regions: a lag phase, a fast growth phase, and a plateau phase. The typical fibril formation process starts with the lag phase in which the amount of partially folded peptide turned into fibrils is not significant enough to be detected. The lag-time corresponds to the time the critical mass of the nucleus is built. Afterwards, a drastic elongation phase follows, and fibril concentration increases rapidly. Investigations were carried out to determine fibrillation tendencies under stress conditions by shaking at 37° C. within Fluoroskan Ascent FL or Fluoroskan Ascent. For the tests in Fluoroskan Ascent (FL), 200 μl sample were placed into a 96-well mictrotiter plate PS, flat bottom, Greiner Fluotrac No. 655076. Plates were sealed with Scotch Tape (Qiagen). Samples were stressed by continuous cycles of 10 sec shaking at 960 rpm and 50 sec rest period at 37° C. The kinetic was monitored by measuring fluorescence intensity every 20 min. Peptides were diluted in a buffer system to a final concentration of 3 mg/ml. 20 μl of a 10.1 mM ThT solution in H2O were added to 2 ml of peptide solution to receive a final concentration of 100 μM ThT. For each sample eight replicates were tested. • ThT buffer system A) 100 mM phosphate buffer pH 7.4 • ThT buffer system B) 100 mM phosphate buffer pH 7.4, 2.7 mg/ml m-cresol Lag time in hours (h) in Thioflavin T (ThT) assay of peptide samples was determined in ThT buffer system A as described in Methods.
# human GIP receptor = molecular target: T1, human GIP receptor (Homo sapiens, UniProt P48546); test: In vitro cellular cAMP assay for GIP receptor efficacy (human adipocytes); format: cell-based; settings: for Emax: read-out: hGIPR Emax
# T1 construct: human adipocytes endogenously expressing the human GIP receptor; host or cells: human preadipocytes (Lonza) differentiated to adipocytes
# T1 sequence (P48546 22-466): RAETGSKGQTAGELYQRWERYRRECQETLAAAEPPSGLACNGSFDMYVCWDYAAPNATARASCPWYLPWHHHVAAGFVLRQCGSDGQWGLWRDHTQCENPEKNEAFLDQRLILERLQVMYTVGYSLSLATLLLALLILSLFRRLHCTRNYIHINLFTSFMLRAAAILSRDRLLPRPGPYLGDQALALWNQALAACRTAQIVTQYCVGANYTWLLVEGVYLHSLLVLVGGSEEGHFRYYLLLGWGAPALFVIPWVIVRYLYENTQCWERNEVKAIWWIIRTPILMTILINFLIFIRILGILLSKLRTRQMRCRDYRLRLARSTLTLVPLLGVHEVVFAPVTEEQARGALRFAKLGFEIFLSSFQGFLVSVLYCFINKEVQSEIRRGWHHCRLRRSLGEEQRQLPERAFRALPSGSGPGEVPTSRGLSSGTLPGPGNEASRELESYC
# Summary of the method: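 Human preadipocytes expanded, then differentiated 6 days (insulin, dexamethasone, PPARγ agonist, 200 μM IBMX, L-thyroxine) before plating at 5000 cells/well. Test compound applied 30 min at room temperature; cAMP measured by HTRF after 1 h with lysis-buffer reagents, read as 665/620 nm fluorescence ratio.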
# [2] = molecular target: human GLP-1 receptor (hGLP-1R) (Homo sapiens, UniProt P43220); test: Binding assay, displacement of [125I]GLP-1 from HEK-293 membranes over-expressing GLP-1R (SPA); settings: [125I]GLP-1 displacement
# Summary of the method: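 Membranes from HEK-293 cells over-expressing human GIPR or GLP-1R, isolated by homogenising, sonicating and ultracentrifuging at 100000×g into HEPES/EDTA/NaCl buffer with protease inhibitors, were used for binding.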
Compound,Increase in FI [1],Lag time before increase [1] [h],Emax (human GIP receptor) [%],IC50 [2] [µM],EC50 (human GIP receptor; read-out: hGIPR EC50) [µM]
"CC[C@H](C)[C@H](NC(=O)[C@H](CCC(=O)O)NC(=O)[C@H](CCC(=O)O)NC(=O)[C@H](CCCCNC(=O)COCCOCCNC(=O)COCCOCCNC(=O)CC[C@H](NC(=O)CCCCCCCCCCCCCCCCC(=O)O)C(=O)O)NC(=O)C(C)(C)NC(=O)[C@@H](NC(=O)[C@H](CO)NC(=O)[C@H](CC(C)C)NC(=O)[C@H](CC(=O)O)NC(=O)[C@H](CO)NC(=O)[C@@H](NC(=O)[C@H](Cc1ccccc1)NC(=O)[C@@H](NC(=O)CNC(=O)[C@H](CCC(=O)O)NC(=O)C(C)(C)NC(=O)[C@@H](N)Cc1ccc(O)cc1)[C@@H](C)O)[C@@H](C)CC)[C@@H](C)CC)C(=O)N[C@@H](Cc1c[nH]cn1)C(=O)N[C@@H](CCC(N)=O)C(=O)NC(C)(C)C(=O)N[C@@H](CCC(=O)O)C(=O)N[C@@H](Cc1ccccc1)C(=O)N[C@H](C(=O)N[C@@H](CCC(=O)O)C(=O)N[C@@H](Cc1c[nH]c2ccccc12)C(=O)N[C@@H](CC(C)C)C(=O)N[C@@H](CC(C)C)C(=O)N[C@@H](C)C(=O)N[C@@H](CCC(N)=O)C(=O)NCC(=O)N1CCC[C@H]1C(=O)N[C@@H](CO)C(=O)N[C@@H](CO)C(=O)NCC(=O)N[C@@H](C)C(=O)N1CCC[C@H]1C(=O)N1CCC[C@H]1C(=O)N1CCC[C@H]1C(=O)N[C@@H](CO)C(N)=O)[C@@H](C)CC [SEQ ID NO: 19, H2N-Y-Aib-E-G-T-F-I-S-D-L-S-I-Aib-K[{AEEA}2-gGlu-C18OH]-E-E-I-H-Q-Aib-E-F-I-E-W-L-L-A-Q-G-P-S-S-G-A-P-P-P-S-NH2] (H-Y[Aib]EGTFISDLSI[Aib]K([AEEA-AEEA-γGlu-C18 diacid])EEIHQ[Aib]EFIEWLLAQGPSSGAPPPS-NH2)",no,>45,94,0.183,
"CC[C@H](C)[C@H](NC(=O)[C@H](Cc1ccccc1)NC(=O)[C@H](CCC(=O)O)NC(=O)[C@H](CCC(=O)O)NC(=O)[C@H](CCC(N)=O)NC(=O)[C@H](Cc1c[nH]cn1)NC(=O)[C@@H](NC(=O)[C@H](CCCNC(=N)N)NC(=O)[C@H](CC(=O)O)NC(=O)[C@H](CCCCNC(=O)COCCOCCNC(=O)COCCOCCNC(=O)CC[C@H](NC(=O)CCCCCCCCCCCCCCCCC(=O)O)C(=O)O)NC(=O)C(C)(C)NC(=O)[C@@H](NC(=O)[C@H](CO)NC(=O)[C@H](CC(C)C)NC(=O)[C@H](CC(=O)O)NC(=O)[C@H](CO)NC(=O)[C@@H](NC(=O)[C@H](Cc1ccccc1)NC(=O)[C@@H](NC(=O)CNC(=O)[C@H](CCC(=O)O)NC(=O)C(C)(C)NC(=O)[C@@H](N)Cc1ccc(O)cc1)[C@@H](C)O)[C@@H](C)CC)[C@@H](C)CC)[C@@H](C)CC)C(=O)N[C@@H](CCC(N)=O)C(=O)N[C@@H](Cc1c[nH]c2ccccc12)C(=O)N[C@@H](CC(C)C)C(=O)N[C@@H](CC(C)C)C(=O)N[C@@H](C)C(=O)N[C@@H](CCC(N)=O)C(=O)NCC(=O)N1CCC[C@H]1C(=O)N[C@@H](CO)C(=O)N[C@@H](CO)C(=O)NCC(=O)N[C@@H](C)C(=O)N1CCC[C@H]1C(=O)N1CCC[C@H]1C(=O)N1CCC[C@H]1C(=O)N[C@@H](CO)C(N)=O [SEQ ID NO: 35, H2N-Y-Aib-E-G-T-F-I-S-D-L-S-I-Aib-K[{AEEA}2-gGlu-C18OH]-DRIHQEEFIQWLLAQGPSSGAPPPS-NH2] (H-Y[Aib]EGTFISDLSI[Aib]K([AEEA-AEEA-γGlu-C18 diacid])DRIHQEEFIQWLLAQGPSSGAPPPS-NH2)",no,>45,120,> 0.1,0.0013
